Experimental data reported in US20090220507A1, “INHIBITION OF EXTRACELLULAR SIGNAL-REGULATED KINASE 1/2 AS A TREATMENT FOR CARDIAC HYPERTROPHY AND HEART FAILURE” (priority 2005, published 2009).
“Also recorded” adds a separate entry of the source. * marks the point of attachment. Myristoyl = CCCCCCCCCCCCCC(=O)*

Experiments:
[1] = tested on: ERK1/2; assay: Western blot of phosphorylated ERK1/2 in isoproterenol-stimulated NRVMs; format: cell-based, rat; settings: for isoproterenol activation of ERK1/2 (phosphorylation): all time points (5, 30, 60 minutes, 6, 24, 33, 48 hours)
Description: (§1) Materials. Isoproterenol (Sigma) was dissolved in sterile H2O containing 1 mmol/L Ascorbic Acid, and the concentrations used are described in the results section.
(§2) Cell Culture. Neonatal rat cardiac ventricular myocytes (NRVMs) were cultured as previously described (Simpson et al., 1982; Simpson and Savion, 1982; Long et al., 1992; Waspe et al., 1990). Briefly, cells were isolated by trypsin digestion from the ventricles of 1-3 day old rats. Isolation procedures were done in a very gentle manner and cells were plated at a concentration of 1.5×10^5 cells per well in 12-well tissue culture plates in medium containing serum. 24 hours later the media was changed to serum free media containing insulin, transferin, bovine serum albumin, vitamin B12 and penicillin. Wells were pre-coated with a 0.1% gelatin solution and dried in a hood under UV lights. In addition, all media solutions were supplemented with Hepes (pH 7.5) to a final concentration of 20 mmol/L in order to buffer the pH of the media.
ERK1/2 Western Blots. Phosphorylated ERK1/2 protein extraction was performed essentially as described in Headley et al. (2004).
ERK1/2 activation is dependent on calcineurin and on CaMKII.

[2] = tested on: β1-AR-mediated fetal gene expression in NRVMs; assay: RNase protection assay of isoproterenol-induced fetal gene program mRNA in NRVMs; format: cell-based, rat
Description: as §1, §2
(§3) RNase Protection Assay. Total RNA was extracted by TRIZol (Invitrogen) and used in RNase protection assays (RPA). RPAs were performed essentially as described (Patten et al., 1996; Kinugawa et al., 2001). Briefly, 5 μg of total RNA was hybridized against probes specific to skeletal α-actin, SRCA2A, α-MyHC, β-MyHC, ANF, BNP and GAPDH. RNase protection experiments were performed using the RPAII kit (Ambion). RPA experiments were performed from mRNA extracted from a minimum of three different experiments.
as §3, with “RNase Protection Assay: Total RNA” for “RNase Protection Assay. Total RNA”, “al., 1996; Kinuguwa et al.,” for “al., 1996; Kinugawa et al.,”, “protection experiments (RPAs) were performed” for “protection experiments were performed”

[3] = inhibitor 1 hour before isoproterenol, RPA, mRNA normalized to GAPDH
[4] = inhibitor alone, without isoproterenol
[5] = inhibitor 1 hour after ISO treatment, mRNA extracted 48 hours later, RPA

| Compound | isoproterenol activation of ERK1/2 (phosphorylation) ([1]; inhibitor pre-treatment) | isoproterenol-induced changes in endogenous mRNA fetal gene program induction (all changes in fetal gene expression) [2, 3] | isoproterenol-associated down-regulation (repression) of SRCA2a [2, 3] | isoproterenol-associated down-regulation (repression) of α-MyHC [2, 3] | isoproterenol-associated up-regulation (induction) of ANP [2, 3] | isoproterenol-associated up-regulation of BNP [2, 3] | isoproterenol-associated up-regulation of skeletal α-actin [2, 3] | other results |
| --- | --- | --- | --- | --- | --- | --- | --- | --- |
| 14-22 Amide myristoylated (Myristoyl-GRTGRRNAI-NH2; SMILES CCCCCCCCCCCCCC(=O)NCC(=O)N[C@@H](CCCNC(=N)N)C(=O)N[C@H](C(=O)NCC(=O)N[C@@H](CCCNC(=N)N)C(=O)N[C@@H](CCCNC(=N)N)C(=O)N[C@@H](CC(N)=O)C(=O)N[C@@H](C)C(=O)N[C@H](C(N)=O)[C@@H](C)CC)[C@@H](C)O; UniProt P61925 15-23, looked up, fragment) [PKI14-22] | did not prevent |  |  |  |  |  |  |  |
| NCCOB(c1ccccc1)c1ccccc1 [AFB-30, 2-APB] |  | completely abrogated |  |  |  |  |  |  |
| COc1ccc(S(=O)(=O)N(CCO)c2ccccc2CN(C)C/C=C/c2ccc(Cl)cc2)cc1 [KN-93] |  | prevented | not capable of preventing | prevented | prevented | prevented | prevented | ANP mRNA levels [2, 4]: decrease; SRCA2a mRNA levels [2, 4]: decrease; β-MyHC mRNA levels [2, 4]: decrease; activation of ERK1/2 in response to isoproterenol (phosphorylation) ([1]; inhibitor pre-treatment, 33 and 48 hour isoproterenol time points): blocked |
| N#CC(=C(/N)Sc1ccccc1N)/C(C#N)=C(\N)Sc1ccccc1N [U0126] | completely abrogates |  | does not prevent | blocks; also recorded: prevents | blocks | blocks | blocks | ISO-mediated down-regulation of αMyHC [2, 5]: prevents; ISO-mediated up-regulation of the fetal isoforms (fetal gene expression) [2, 5]: prevents; up-regulation (activation) of β-MyHC in response to isoproterenol stimulation [2, 3]: prevents; ISO-mediated up-regulation of the fetal isoforms ([2]; inhibitor 1 hour prior to ISO treatment, mRNA extracted 48 hours later, RPA): prevents |
| CC(C)NCC(O)c1ccc(O)c(O)c1 (centres unmarked) [isoproterenol] |  |  |  |  |  |  |  | ERK phosphorylation as a surrogate marker for activation ([1]; isoproterenol stimulation, 5 minutes, 33 hours and 48 hours): increased |
